Experimental data: a melting point compilation (Tetko et al.; mined from patent text by program, amines drawn as free bases though some values may be those of a salt)

| SMILES | melting point [°C] |
| --- | --- |
| O=C(Oc1ccc(Oc2ccc(C(F)(F)F)cn2)cc1)N1CCN(c2ncccc2C(F)(F)F)CC1 | 131 to 132 |
| Cn1c(=O)[nH]c2sccc2c1=O | 263 to 265 |
| O=C(NCc1ccccn1)Nc1cc(-n2c(=O)n(-c3ccccc3)c3ccccc32)ccn1 | 231 to 232 |
| COC(=O)C1CC(C#N)(c2ccc(OC)c3c2OCCO3)CCC1=O (centres undefined) | 129 to 132 |
| COc1ccc(CSc2nnc(-c3ccc4occc4c3)o2)cc1C(F)(F)F | 135 to 136 |
| CCCCn1ncc(/C=C(\Cc2cc3c(cc2OC)OCO3)C(=O)O)c1-c1cc(Cl)c(C)cc1OCc1ccccc1C(=O)O | 114 to 116 |
| CCN(c1ccc(N2CCN(c3ccc(O)cc3)CC2)cc1)c1nccs1 | 215 |
| COc1c(OCc2ccc3ccccc3c2)cccc1C(=O)c1nccs1 | 100 |
| CCOC(=O)C1=C(COCCNC=O)NC(C)=C(C(=O)OC)C1c1cccc(Cl)c1Cl (centres undefined) | 178 to 181 |
| CCN1C(=O)C(C)(C)c2ccc(C(=O)Nc3ccc(C#N)cc3)cc21 | 211 to 213 |
| Nc1nc(N)c2nc(CNc3ccc(Cl)cc3)cnc2n1 | > 360 |
| N#CC(C(N)=O)c1ccccc1 (centres undefined) | 148 to 150 |
| COC(=O)c1c(-c2ccco2)ccnc1C(=O)c1nc(OC)cc(OC)n1 | 135 to 140 |
| CCNCC1CCN(c2c(F)cc3c(=O)c(C(=O)O)cn(C4CCC4)c3c2F)C1 (centres undefined) | 223 to 225 |
| N[C@@H](Cc1ccc(C(F)(F)F)cc1)[C@H](O)c1ccc(Oc2ccccc2)cc1 (racemic) | 114 to 115 |
| O=C1CCC(c2ccc(-c3ccccc3Cl)o2)O1 (centres undefined) | 101 to 103 |
| CCCc1c(S)ccc2c(=O)cc(C(=O)O)oc12 | 206 to 208 |
| CC1(C)CON(Cc2ccc(N3C(=O)C4=C(CCCC4)C3=O)cc2Cl)C1=O | 102 to 104 |
| O=c1[nH]nc2n1-c1ccc(N3CCCC3)nc1C(c1ccccc1Cl)=[N+]([O-])C2 | 200 |
| CC(=O)c1c(C#N)nn(-c2c(Cl)cc(OC(F)(F)F)cc2Cl)c1N | 192 to 193 |
| CC(C)OC(=O)c1cc(-n2c(=O)c3c(n(C)c2=O)CCS3)c(F)cc1Cl | 156 to 158 |
| CC(=O)Cc1ccc(Oc2ccc(C(F)(F)F)cc2)cc1 | 88 to 90 |
| COC(=O)C(C)(C)OCc1cc2cc(C(F)(F)F)ccc2n1S(=O)(=O)c1ccc2c(c1)OCCN2C | 96 to 98 |
| CCOc1nc(O)ns1 | 98 |
| O=C(O)C(CC1CCCCC1)NC(=O)C(CS)C(F)(F)F (centres undefined) | 116 to 118 |
| CN(C)C(=O)c1cc2c(OC[C@H](O)CN3CCC(c4ccc5ccccc5c4)CC3)cccc2[nH]1 | 158 to 160 |

| SMILES | melting point [°C] |
| --- | --- |
| O=c1[nH]cc(C2CCCCC2)c2ccccc12 | 111 to 112 |
| COCCNC(=NC#N)Nc1ccc(C2=NNC(=O)CC2C)cc1 (centres undefined) | 196 to 197 |
| O=c1[nH]c2cccc(C3CCCNC3)c2[nH]1 (centres undefined) | 260 |
| CCCCCS(=O)(=O)NC(=O)/C=C/c1ccc(OCCO[Si](C(C)C)(C(C)C)C(C)C)cc1Oc1ncc(C(F)(F)F)cc1Cl | 106 to 108 |
| N#CCc1cc(Cl)ncc1[N+](=O)[O-] | 87 to 89 |
| COc1cc(N)ccc1-c1nc(-c2cccnc2)c(C)[nH]1 | 95 to 100 |
| S=C1CCNc2ccccc2N1 | 154 to 157 |
| CCOC(=O)CCc1ccc(SCc2coc(/C=C/c3ccccc3)n2)cc1 | 77 to 78 |
| O=C(O)c1ccc(-c2ccncc2)cc1[N+](=O)[O-] | 314 to 316 |
| CCOC(=O)c1ccc(OCCC2CCc3c(c(OC)c(OC)c(OC)c3OC)CC2)cc1 | 129 to 131 |
| CC[C@H](C)[C@H](Nc1nc(C(=O)c2ccccc2)ns1)C(=O)N1CCC[C@H]1C(=O)O | 132 to 134 |
| CSC(=O)C(C)(C)NC(=O)c1cc2c(n(CC3CCCCC3)c1=O)CCCCCC2 | 196 to 198 |
| O=C(O)c1ccc(NCCCCCCCCCCCOc2ccccc2)cc1 | 117 to 119 |
| CCOC(=O)c1nc(-c2cccc(F)c2)c(-c2ccc(=O)n(C(C)C)n2)s1 | 154 to 155 |
| Oc1ncnc2[nH]c(-c3ccccc3)cc12 | > 300 |
| COC1CCN(c2cc(NC(=O)OC(C)(C)C)c([N+](=O)[O-])cc2C#Cc2ccccc2)CC1 | 147 to 150 |
| O=C1C(=O)c2ccccc2C2=C1SCC1(CCN(Cc3ccc(F)cc3F)CC1)O2 | 104 to 107 |
| O=C(N[C@H](Cc1ccc(Oc2ccccc2)cc1)[C@@H](O)c1ccc(F)cc1)c1ccc(F)c2ccccc12 (racemic) | 104 to 105 |
| O=C(NC1CCC(Oc2ccc(F)cc2)CC1)NC12CC3CC(CC(C3)C1)C2 (centres undefined) | 243 |
| O=[N+]([O-])c1ccc(CN2CCCC(O)c3ncccc32)cc1 (centres undefined) | 182 to 185 |
| CCC(=O)n1c(=O)oc2ccccc21 | 88 to 90 |
| COc1ccc2c3c(ccc2c1)OC(=O)CC3 | 122 to 123 |
| O=C1c2c(Cl)cccc2S(=O)(=O)N1Cn1nnn(-c2ccccc2)c1=S | 158 to 162 |
| CCOC(=O)C(=O)Nc1cccc(N(C)C)c1C#N | 124 to 126 |
| Cc1cccc(COCCCC(=O)O)c1 | 53 to 54 |
| CCc1cnc(NC(=O)C2c3ccccc3Oc3ccccc32)o1 | 212 to 213 |

| SMILES | melting point [°C] |
| --- | --- |
| CCOc1cc2ncc(C#N)c(Nc3cccc(Cl)c3)c2cc1OCC | 188 to 190 |
| Cc1n[nH]cc1-c1cccc2c1nnn2-c1ccnc(NC2CCC(C(=O)N3CCC(O)CC3)CC2)n1 (centres undefined) | 190 to 195 |
| COc1ccc(C(C[N+](=O)[O-])SC(=S)N(C)C)cc1OC (centres undefined) | 108 to 110 |
| CC(C)n1cc(C(=O)O)c2ccc(Cl)cc21 | 206 to 208 |
| N#CC(c1ccccn1)c1cccs1 (centres undefined) | 48 to 50 |
| CCn1cc(-c2ccc(O)cc2)nc1S | 252 |
| CN(C)C=Nc1ccc(-c2ccc(Cl)cc2)cn1 | 125 |
| CCOC(=O)c1cnc2ccc(CC)nc2c1Cl | 94 to 96 |
| O=C1NC(=O)c2ccc(Br)cc2/C1=C/NCc1cccnc1 | 299 to 300 |
| N#CC1=C(C#N)Sc2nc3cc([N+](=O)[O-])c(Cl)cc3nc2S1 | 228 to 230 |
| CC(=O)Nc1cccc(C(=O)NCc2ccc(-n3c(-c4cccnc4N)nc4cc(C)cnc43)cc2)c1 | 180 to 181 |
| CCOC(=O)C(=CC=CN(CC)CCO)S(=O)(=O)c1ccccc1 | 107 |
| O=c1c2c(F)cccc2nc(C(S)c2ncnc3[nH]cnc23)n1-c1ccccc1Cl (centres undefined) | 223 to 224 |
| Cc1nc2n(c(=O)c1CCO)CCCS2 | 155 |
| CSc1ccc(-c2cc(C(=O)O)nn2-c2ccc(F)cc2)cc1 | 199 to 200 |
| Clc1nc(-c2ccc(Br)cc2)nc(Cl)c1-c1ccccc1 | 133 |
| Nc1cc(I)cnc1Cl | 129 |
| CCCc1c(OCCCCCOc2ccc3nc(CCC(=O)O)ccc3c2CCC(=O)O)ccc2c1OCCC2=O | 123 to 128 |
| NC(Cc1cccc(O)c1)c1ccccc1 (centres undefined) | 179 to 181 |
| C=CCOc1cc2c(cc1CC=C)CCC(=O)N2 | 137 to 139 |
| Clc1ccc(-c2cncn3cnnc23)cc1 | 193 to 195 |
| Cc1ccn2nc(S(=O)(=O)N(C(=O)c3ccccc3)c3c(Cl)cccc3Cl)nc2n1 | 187 to 189 |
| COc1ccc2c(c1)Sc1cc(OC(C)=O)c(OC)cc1N2 | 172 to 174 |
| c1ccc(CC2CCN(Cc3nc4ccccc4[nH]3)CC2)cc1 | 179 to 181 |
| COC(=O)c1cc(C(=O)NCCCCN2CCC(c3ccc4c(c3OC)CCCC4)CC2)ccc1-c1ccc(C(F)(F)F)cc1 | 132 |
| N#Cc1ccc(-c2ccco2)cn1 | 115 to 116 |

| SMILES | melting point [°C] |
| --- | --- |
| CCN(CC)C(=O)Oc1cc(-c2cccc(C(F)(F)F)c2)nc2ccccc12 | 96 |
| O=c1c2c(Cl)cc(Cl)cc2n(Cc2ccccc2)c(=O)n1Cc1ccc(F)cc1 | 148 to 151 |
| CC1(C)COC(=O)N1c1nc(-c2cccc(C#N)c2)cs1 | 181 to 183 |
| O=C1NCc2c1cc1ccc3c(c1c2-c1ccc(F)cc1)OCO3 | 294 to 297 |
| O=C(O)C[C@@H](NC(=O)CN1C[C@H](c2ccccc2)Oc2ccc(NC(=O)NCc3ccccc3)cc2C1=O)c1ccccc1 | 138 to 140 |
| CCOC(=O)C1(N)C=CNN1c1cc(Cl)cc(Cl)c1 (centres undefined) | 157 to 158 |
| CCOC(=O)c1cnc(Cl)cc1NC | 61.4 to 63.1 |
| CCOc1cc(N=Nc2ccc(OC)cc2)c(O)c(C(C)(C)C)c1 | 105 to 108 |
| CCOC(=O)C(C)n1ncc2ccc([N+](=O)[O-])cc21 (centres undefined) | 99.7 to 100 |
| CCOC(=N)C(O)c1ccccc1 (centres undefined) | 65 to 67 |
| N#CCCCCn1cnc(NC(=S)NCC(F)(F)F)n1 | 136 to 138 |
| O=CNNc1ccccc1 | 138 to 143 |
| COc1ccc(CNc2nc(CCC(=O)O)nc3sc4c(c23)CCCC4)cc1Cl | 135 |
| CCOC(=O)C(C)Oc1ccc2cc(Oc3c(Cl)cc(C(F)(F)F)cc3Cl)ccc2c1 (centres undefined) | 118 to 120 |
| C=CS(=O)(=O)NCc1ccc(OC)cc1 | 68 to 69 |
| CCOC(=O)c1ncn2c3cccc(Br)c3c(=O)n(C)c12 | 272 |
| CCOC(=O)C1=C(C)NC(C)=C(C(=O)OC)C1c1ccccc1Br (centres undefined) | 134 to 136 |
| CC(=O)NC1=NN(c2ccccc2)C(C)C1 (centres undefined) | 144 to 146 |
| CCCCC(=Nc1sccc1C(=O)NCCC)OC | 68 to 70 |
| CCOC(=O)C(c1ccc(NC(=O)OC(C)(C)C)cc1)N(C)C(C)C (centres undefined) | 87 to 88 |
| COCCNS(=O)(=O)c1cccc(Nc2nccc(-c3sc(C)nc3C)n2)c1 | 197 to 198 |
| CCOC(=O)Cc1ccc2c(c1)C(O)C(NC(=O)OC)CC2 (centres undefined) | 99 to 100 |
| Brc1cc2c(cn1)[nH]c1ccccc12 | 300 |
| CCNC(=O)c1ccc(N2CCN(Cc3cc4c(c(OC)c3)OC(C)C(=O)N4)CC2)c(F)c1 (centres undefined) | 228 to 229 |
| Cc1ccc(NC(=O)c2cccc(C(F)(F)F)c2)cc1-c1ccc2ncncc2c1 | 155 to 156 |
| OCCN(CCO)CC(c1ccc(Cl)cc1)c1ccc(Cl)cc1 | 75 to 76 |
